≈ marks a conversion by molar mass, not a printed value. One block for each compound: values may come before it.
What was measured:
Test in all cases: ≥ marks a high value that may be exact or a test limit, other limits are often not marked, values filed in µg/mL are converted to µM
[1] = test system: Escherichia coli NCTC 10418
[2] = test system: Pseudomonas aeruginosa CIP A22
[3] = test system: Staphylococcus aureus ATCC 25923
[4] = test system: Escherichia coli ATCC 54127
[5] = test system: Pseudomonas aeruginosa ATCC 27853
[6] = test system: Staphylococcus aureus NCTC 10788
[7] = test system: Escherichia coli ATCC 25922
[8] = test system: Bacillus subtilis MTCC 14416
Escherichia coli MG1655 = test system: Escherichia coli MG1655
Vibrio cholerae = test system: Vibrio cholerae
[9] = test system: Enterococcus faecalis ATCC 29212
[10] = test system: Staphylococcus aureus MTCC 9542
[11] = test system: Staphylococcus aureus ATCC 43300
[12] = test system: Klebsiella pneumoniae KP2
Acinetobacter baumannii = test system: Acinetobacter baumannii
Pseudomonas aeruginosa = test system: Pseudomonas aeruginosa
[13] = test system: Pseudomonas aeruginosa TRPA 111
[14] = test system: Klebsiella pneumoniae KP1
[15] = test system: Acinetobacter baumannii AB3
[16] = test system: Staphylococcus aureus ATCC BAA-44
[17] = test system: Acinetobacter baumannii AB2
[18] = test system: Acinetobacter baumannii AB1
[19] = test system: Klebsiella pneumoniae KP3
[20] = test system: Pseudomonas aeruginosa TRPA 108
[21] = test system: Staphylococcus aureus VRSA4
[22] = test system: Staphylococcus aureus 4003
[23] = test system: Staphylococcus aureus USA 400
[24] = test system: Klebsiella pneumoniae KP4
[25] = test system: Staphylococcus epidermidis NRS 101
[26] = test system: Staphylococcus aureus NRS 846
[27] = test system: Staphylococcus aureus USA 100
[28] = test system: Staphylococcus aureus RN4220
[29] = test system: Staphylococcus aureus NRS 1
[30] = test system: Staphylococcus aureus ATCC 6538
[31] = test system: Pseudomonas aeruginosa 253
[32] = test system: Acinetobacter baumannii ATCC 19606
[33] = test system: Haemophilus influenzae ATCC 49247
[34] = test system: Mycobacterium tuberculosis H37Ra
[35] = test system: Bacillus anthracis Sterne 34F2
[36] = test system: Pseudomonas aeruginosa 910
[37] = test system: Pseudomonas aeruginosa 919
[38] = test system: Klebsiella pneumoniae NCTC 9633
[39] = test system: Staphylococcus aureus USA 300
[40] = test system: Staphylococcus aureus NRS 72
[41] = test system: Vibrio parahaemolyticus CCRC 10806
Staphylococcus xylosus = test system: Staphylococcus xylosus
[42] = test system: Staphylococcus aureus CCRC 12652
Citrobacter koseri = test system: Citrobacter koseri
Escherichia coli JM109 = test system: Escherichia coli JM109
[43] = test system: Salmonella typhimurium CCRC 12947
[44] = test system: Klebsiella pneumoniae CCRC 10694
Salmonella enterica = test system: Salmonella enterica
[45] = test system: Streptococcus alactolyticus
Escherichia coli BL21 = test system: Escherichia coli BL21
[46] = test system: Staphylococcus aureus CCRC 15211

Compound: NC(N)=NCCC[C@H](NC(=O)[C@H](CCCN=C(N)N)NC(=O)[C@H](Cc1c[nH]c2ccccc12)NC(=O)[C@H](Cc1c[nH]c2ccccc12)NC(=O)[C@H](CCCN=C(N)N)NC(=O)[C@H](CCCN=C(N)N)NC(=O)[C@H](Cc1c[nH]c2ccccc12)NC(=O)[C@H](Cc1c[nH]c2ccccc12)NC(=O)[C@H](CCCN=C(N)N)NC(=O)[C@H](Cc1c[nH]c2ccccc12)NC(=O)[C@H](Cc1c[nH]c2ccccc12)NC(=O)[C@@H](N)CCCN=C(N)N)C(=O)O [RWWRWWRRWWRR]
MIC [12]: 15.4 µM (≈ 32 µg/mL)
MIC (Acinetobacter baumannii): 2.7 µM (≈ 5.6 µg/mL)
MIC (Pseudomonas aeruginosa): 3.3 µM (≈ 6.84 µg/mL)
MIC [13]: 1.45 µM (≈ 3 µg/mL)
MIC [14]: 13 µM (≈ 27 µg/mL)
MIC [15]: 5.31 µM (≈ 11 µg/mL)
MIC [16]: 4 µM (≈ 8.29 µg/mL)
MIC [17]: 1.45 µM (≈ 3 µg/mL)
MIC [18]: 2.41 µM (≈ 5 µg/mL)
MIC [19]: 15.4 µM (≈ 32 µg/mL)
MIC [20]: 1.93 µM (≈ 4 µg/mL)
MIC [21]: 5.66 µM (≈ 11.7 µg/mL)
MIC [22]: 1.45 µM (≈ 3 µg/mL)
MIC [23]: 2 µM (≈ 4.14 µg/mL)
MIC [24]: 15.4 µM (≈ 32 µg/mL)
MIC [11]: 2 µM (≈ 4.14 µg/mL)
MIC [25]: 4 µM (≈ 8.29 µg/mL)
MIC [26]: 16 µM (≈ 33.2 µg/mL)
MIC [27]: 3.38 µM (≈ 7 µg/mL)
MIC [28]: 2 µM (≈ 4.14 µg/mL)
MIC [29]: 1 µM (≈ 2.07 µg/mL)
MIC [30]: 4 µM (≈ 8.29 µg/mL)

Compound: CC(C)[C@H](NC(=O)[C@H](Cc1c[nH]c2ccccc12)NC(=O)[C@H](CCCN=C(N)N)NC(=O)[C@H](Cc1c[nH]c2ccccc12)NC(=O)[C@H](Cc1c[nH]c2ccccc12)NC(=O)[C@H](CCCN=C(N)N)NC(=O)[C@@H](N)CCCN=C(N)N)C(=O)N[C@H](C(=O)N[C@@H](Cc1c[nH]c2ccccc12)C(N)=O)C(C)C [RRWWRWVVW]
MIC [31]: 8 µM (≈ 11.4 µg/mL)
MIC [32]: 10 µM (≈ 14.3 µg/mL)
MIC [33]: ≥ 40 µM
MIC [34]: 20 µM (≈ 28.6 µg/mL)
MIC [35]: 20 µM (≈ 28.6 µg/mL)
MIC [36]: 8 µM (≈ 11.4 µg/mL)
MIC [37]: 2 µM (≈ 2.86 µg/mL)
MIC [38]: 2.5 µM (≈ 3.57 µg/mL)
MIC [39]: 20 µM (≈ 28.6 µg/mL)
MIC [40]: 20 µM (≈ 28.6 µg/mL)

Now from value to compound, other results behind:

MIC [1]: 5 µM (≈ 15 µg/mL)
MIC [2]: 4.6 µM (≈ 13.8 µg/mL)
MIC [3]: 3 µM (≈ 8.99 µg/mL)
MIC [4]: 2.3 µM (≈ 6.89 µg/mL)
MIC [5]: 11.6 µM (≈ 34.8 µg/mL)
MIC [6]: 3 µM (≈ 8.99 µg/mL)
MIC [7]: 5 µM (≈ 15 µg/mL)
Compound: CC[C@H](C)[C@H](NC(=O)[C@H](CC(=O)O)NC(=O)[C@H](CCCCN)NC(=O)[C@H](Cc1c[nH]c2ccccc12)NC(=O)[C@H](CC(C)C)NC(=O)[C@H](C)N)C(=O)N[C@@H](CC(C)C)C(=O)N[C@@H](CCCCN)C(=O)N[C@@H](CC(N)=O)C(=O)N[C@H](C(=O)NCC(=O)N[C@@H](CCCCN)C(=O)N[C@@H](C)C(=O)N[C@@H](C)C(=O)NCC(=O)N[C@@H](CCCCN)C(=O)N[C@@H](C)C(=O)N[C@H](C(=O)N[C@@H](CC(C)C)C(=O)N[C@@H](CC(N)=O)C(=O)N[C@H](C(=O)N[C@H](C(=O)N[C@H](C(=O)N[C@@H](CC(=O)O)C(=O)N[C@@H](CCSC)C(=O)N[C@H](C(=O)N[C@@H](CC(N)=O)C(=O)N[C@@H](CCC(N)=O)C(N)=O)C(C)C)[C@@H](C)O)C(C)C)[C@@H](C)O)C(C)C)C(C)C [ALWKDILKNVGKAAGKAVLNTVTDMVNQ]

MIC [8]: 5.15 µM (≈ 12.5 µg/mL)
MIC (Escherichia coli MG1655): 2.57 µM (≈ 6.25 µg/mL)
MIC [9]: 41.2 µM (≈ 100 µg/mL)
MIC [10]: 2.57 µM (≈ 6.25 µg/mL)
MIC [11]: 20.6 µM (≈ 50 µg/mL)
Compound: CC[C@H](C)[C@H](NC(=O)[C@H](CCCCN)NC(=O)[C@@H]1CCCN1C(=O)[C@H](CC(C)C)NC(=O)[C@H](Cc1ccccc1)NC(=O)[C@H](CC(N)=O)NC(=O)[C@H](C)NC(=O)[C@H](C)NC(=O)[C@H](CC(C)C)NC(=O)CNC(=O)[C@H](C)NC(=O)[C@H](CC(C)C)NC(=O)[C@H](CC(C)C)NC(=O)[C@@H]1CCCN1C(=O)[C@@H](N)CC(C)C)C(=O)N[C@@H](Cc1ccccc1)C(=O)N[C@@H](CS)C(=O)N[C@@H](CCCCN)C(=O)N[C@H](C(=O)N[C@H](C(=O)N[C@@H](CCCN=C(N)N)C(=O)N[C@@H](CCCCN)C(N)=O)[C@@H](C)O)[C@@H](C)CC [LPLLAGLAANFLPKIFCKITRK]
MIC (Vibrio cholerae): 5.15 µM (≈ 12.5 µg/mL)

MIC (Pseudomonas aeruginosa): 118 µM (≈ 192 µg/mL)
MIC (Staphylococcus xylosus): 1.23 µM (≈ 2 µg/mL)
MIC [42]: 19.7 µM (≈ 32 µg/mL)
MIC (Citrobacter koseri): 2.46 µM (≈ 4 µg/mL)
MIC (Escherichia coli JM109): 4.92 µM (≈ 8 µg/mL)
MIC [43]: 19.7 µM (≈ 32 µg/mL)
MIC [44]: 19.7 µM (≈ 32 µg/mL)
MIC (Salmonella enterica): 19.7 µM (≈ 32 µg/mL)
MIC [45]: 7.38 µM (≈ 12 µg/mL)
MIC (Escherichia coli BL21): 4.92 µM (≈ 8 µg/mL)
MIC [46]: ≥ 39.4 µM
Compound: CC[C@H](C)[C@H](N)C(=O)N[C@@H](CCCCN)C(=O)N[C@@H](Cc1c[nH]c2ccccc12)C(=O)N[C@@H](CCCCN)C(=O)N[C@@H](C)C(=O)N[C@H](C(=O)N[C@@H](CC(C)C)C(=O)N[C@@H](CC(=O)O)C(=O)N[C@@H](C)C(=O)N[C@H](C(=O)N[C@@H](CCCCN)C(=O)N[C@@H](CCCCN)C(=O)N[C@H](C(=O)N[C@H](C(N)=O)[C@@H](C)CC)C(C)C)C(C)C)[C@@H](C)CC [IKWKAILDAVKKVI]
MIC [41]: 9.85 µM (≈ 16 µg/mL)

Reference: DBAASP
